pIC50: −log10 of the molar value. Where two headings read alike, the source gives them in different places.
Assays:
[1] = Bidirectional permeability in Caco-2 cells; type: in vitro ADME; conditions: human, Caco-2, 5 µM, alone
Description: (§1) The Caco-2 cell culture and bidirectional permeability assays used in the study were adapted from previous studies at Takeda. Briefly, Caco-2 cells were obtained from American Type Culture Collection (ATCC) (Manassas, VA, USA) and were cultured in 175 cm^2 tissue culture T-flasks (Corning Life Sciences, Corning, NY, USA). For bidirectional permeability assays, cells were plated onto Costar 24-well culture plates (0.33 cm^2/well, […] (Corning Life Sciences, Corning, NY, USA) by adding 1 × 10^5 cells suspended in 0.2 mL of culture medium (Dulbecco’s modified Eagle’s medium [DMEM] with 0.1 mM non-essential amino acids, 2 mM L-glutamine, 4.5 g/L glucose, and 10% fetal bovine serum [FBS]) to the upper chamber of each well of the 24-well transwell plate. Cell-free culture medium (40 mL) was added to the lower chamber reservoir (Corning Life Sciences, Corning, NY, USA). The transwell plates were then incubated at 37 °C in an atmosphere of 5% CO2 for 25 days to ensure complete enterocyte-like differentiation of the cells, and the culture medium was changed every three to four days during the incubation period. Cell monolayers with transepithelial electrical resistance (TEER) values > 250 ohms × cm^2 were used for the bidirectional permeability assays.
(§2) All chemicals and reagents including control compounds were purchased from commercial sources such as Sigma-Aldrich or synthesized in house (pevonedistat and LY335979). Bidirectional transport studies were performed at 37 °C. Before each experiment, the confluent cell monolayers on transwell inserts were washed and equilibrated for 30 min with transport media (Hank’s Balanced Salt Solution [HBSS] containing 25 mM 4-(2-hydroxyethyl)-1-piperazineethanesulfonic acid [HEPES] and 10 mM glucose, pH 7.4 or 6.5). The bidirectional permeability of 5 µM of the cyclohexane derivative was assessed alone or in the presence of 5 µM LY335979, 5 µM K0143, or 10 µM Elacridar to inhibit P-gp, BCRP, and both efflux transporters, respectively. Additionally, the bi-directional permeability of 5 µM solutions of nadolol (low permeable control marker), minoxidil (high permeable marker), propranolol (high permeable marker), and pevonedistat (efflux transporter control) was also assessed. The experiment was initiated by adding a solution containing the test compounds and LY335979 to either the apical (for apical-to-basolateral [A-to-B] transport) or basolateral (for basolateral-to-apical [B-to-A] transport) compartment. Lucifer yellow (50 µM) was added to each donor chamber in the experiment to serve as a paracellular transport control and to monitor cell monolayer integrity. The apical volume was 0.2 mL and the basolateral volume was 1.0 mL. Bovine serum albumin (BSA, Sigma Aldrich) (5%) was added to the transport media on the receiver side to prevent non-specific binding of the test compound to the polystyrene well. After the addition of test compound into the donor side, […] of the receiving solution were withdrawn from the receiver side at 30 and 60 min. A […] of fresh transport media was immediately added to the receiver side at 30 and 60 min. The samples were placed into 96-well black plates (PerkinElmer Life Sciences, Boston, MA, USA) for fluorescence measurement (excitation at 450 nm and emission at 535 nm). After this measurement, the amounts of cyclohexane derivative and control compounds in each sample were quantified with liquid chromatography–mass spectrometry (LC–MS). The time course of drug transported across cell monolayers was analyzed to determine the time and rate of steady-state flux. The transport rate (total amount of drug present in the receiver chamber per unit time), Papp, and efflux ratio were calculated as described in Equations (4) and (5). […]

[2] = test system: Caco-2 cells; test: Bidirectional permeability in Caco-2 cells; type: in vitro ADME
Description: as §1, §2

[3] = test system: BCRP; test: Bidirectional permeability in Caco-2 cells; type: in vitro ADME; conditions: human
Description: as §1, §2

[4] = test system: P-gp and BCRP; test: Bidirectional permeability in Caco-2 cells; type: in vitro ADME; conditions: human, Caco-2, with Elacridar (GF918) 10 µM, 5 µM, + 10 µM Elacridar (GF918) (dual inhibitor of P-gp and BCRP)
Description: as §1, §2

[5] = test system: P-gp; test: Bidirectional permeability in Caco-2 cells; type: in vitro ADME; conditions: human, Caco-2, with LY335979 5 µM
Description: as §1, §2

[6] = target: T1, Chinese hamster ovary cell-derived wild type aGal A (CHO aGal A) (Homo sapiens, UniProt P06280); test: In vitro affinity assay: residual activity of CHO aGal A enzyme, hydrolysis of 4-methylumbelliferyl-α-D-galactopyranoside; type: biochemical; conditions: 1 nM enzyme, 30 min preincubation at room temperature, pH 4.6, 5 mM 4-MUGA substrate
T1 construct: host or cells: Chinese hamster ovary (CHO) cells
T1 sequence (P06280 32-429): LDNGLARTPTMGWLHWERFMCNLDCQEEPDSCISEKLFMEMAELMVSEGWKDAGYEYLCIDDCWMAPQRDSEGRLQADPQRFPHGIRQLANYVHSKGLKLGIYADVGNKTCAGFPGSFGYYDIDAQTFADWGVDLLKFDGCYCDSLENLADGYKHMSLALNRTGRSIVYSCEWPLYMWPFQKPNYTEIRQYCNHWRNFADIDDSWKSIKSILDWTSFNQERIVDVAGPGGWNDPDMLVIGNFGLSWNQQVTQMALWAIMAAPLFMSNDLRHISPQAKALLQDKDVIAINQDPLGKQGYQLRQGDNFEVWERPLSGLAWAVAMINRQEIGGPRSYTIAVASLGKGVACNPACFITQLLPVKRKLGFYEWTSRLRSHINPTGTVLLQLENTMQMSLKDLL
Description: Using an in vitro affinity assay, measurement of residual activity by preincubating the enzyme with varying concentrations of the probe confirmed that the [^19F]
Figure 5 Residual activity of CHO aGal A enzyme measured via hydrolysis of substrate 4−methylumbelliferyl−α−D−galactopyranoside after 30 min of preincubation with AGAL probe.
The IC50 assessment for the aGal inhibitors was performed using the fluorescent substrate in a McIlvaine buffer at pH 4.6. The CHO aGal A enzyme at 1 nM was pre-incubated with different concentrations of the inhibitor or DMSO as control for 30 min at room temperature. The fluorescent substrate 4-methylumbelliferyl-α-D-galactopyranoside (Research Products International company, catalog number M65400, Mount Prospect, IL, USA) was then added to a final concentration of 5 mM. The reaction was quenched with 0.5 M sodium bicarbonate buffer, with pH 10.5, and plates were read using a SpectraMax reader at excitation and emission wavelengths of 360 and 460 nm, respectively. Data were corrected for background fluorescence and IC50 calculation was performed using an inhibitory dose–response curve fitting in GraphPad Prizm 8.0.

[7] = read-out: Ratio (B/A), efflux ratio
[8] = Caco-2, with KO143 5 µM, 5 µM, + 5 µM KO143 (BCRP inhibitor)
[9] = 5 µM, + 5 µM LY335979 (P-gp inhibitor)

O=C(CCCCCCCn1cc(CCCF)nn1)N1[C@@H]2[C@H](O)[C@@H](O)[C@@H](O)[C@@H](CO)[C@@H]21 [AGAL] gave a Papp A→B at 60 min, 5 µM [1] of 0.11 ×10⁻⁶ cm/s, a Papp B→A at 60 min, 5 µM [1] of 1.36 ×10⁻⁶ cm/s and an efflux ratio at 60 min, 5 µM [1, 7] of 12. For the same molecule, the “reduction of the efflux ratio” value ([2]; by LY335979) was 67%, the “reduction of the efflux ratio” value ([2]; by elacridar) was 76% and the efflux ratio at 60 min, 5 µM ([3]; Caco-2, with K0143 5 µM, by BCRP inhibitor K0143, read-out: reduction of the efflux ratio) was 1.4. For the same molecule, the Papp A→B at 60 min, 5 µM [3, 8] was 0.15 ×10⁻⁶ cm/s, the Papp B→A at 60 min, 5 µM [3, 8] was 1.31 ×10⁻⁶ cm/s and the efflux ratio at 60 min, 5 µM ([3]; Caco-2, with KO143 5 µM, 5 µM, + 5 µM KO143 (BCRP inhibitor), read-out: Ratio (B/A), efflux ratio) was 8.7. For the same molecule, the Papp A→B at 60 min, 5 µM [4] was 0.25 ×10⁻⁶ cm/s, the Papp B→A at 60 min, 5 µM [4] was 0.74 ×10⁻⁶ cm/s and the efflux ratio at 60 min, 5 µM [4, 7] was 2.9. It also gave an efflux ratio at 60 min, 5 µM ([5]; by P-gp inhibitor LY335979, read-out: reduction of the efflux ratio) of 3, a Papp A→B at 60 min, 5 µM [5, 9] of 0.25 ×10⁻⁶ cm/s and a Papp B→A at 60 min, 5 µM [5, 9] of 0.95 ×10⁻⁶ cm/s. It also gave an efflux ratio at 60 min, 5 µM ([5]; 5 µM, + 5 µM LY335979 (P-gp inhibitor), read-out: Ratio (B/A), efflux ratio) of 3.9 and a pIC50 [6] of 7.52.

— paper PMC10609273, “Radiosynthesis and Early Evaluation of a Positron Emission Tomography Imaging Probe [^18F]AGAL Targeting Alpha-Galactosidase A Enzyme for Fabry Disease” (Molecules, 2023)
